Assay in all cases: NCI anticancer screen, dose series, 48 h
The test system of assay [1] is A549 NSCLC.
In assay [2] the test system is DU-145 prostate.
Assay [3] has as its system EKVX NSCLC.
Assay [4] relates to MALME-3M melanoma.
Assay [5] deals with MDA-MB-231 breast.
Assay [6] deals with MDA-MB-435.
The test system of assay [7] is OVCAR-5 ovarian.
Assay [8] relates to RXF 393 renal.
Assay [9] concerns SK-MEL-28 melanoma.
Assay [10] has as its system U251 CNS.

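The compound was tested at five concentrations on cells cultured in 96-well plates, with a 48-hour exposure period. Here, GI50 denotes the concentration required for 50% inhibition of growth. TGI: total growth inhibition.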

Consider `Cc1ccc(S(=O)(=O)N/N=C/C(=C/c2ccc(Cl)cc2)CC(/C=N/NS(=O)(=O)c2ccc(C)cc2)=C\c2ccc(Cl)cc2)cc1`, for which the TGI in [1] is over 100 µM; in assay [2], over 100 µM; in assay [3], 38.4 µM; in [4], 22 µM; in [5], 24.8 µM; in assay [6] it was 14.2 µM. Also, the TGI turned out to be 35.5 µM in [7], 7.38 µM in assay [8], 20.2 µM in assay [9] and 17.2 µM in [10].

With `O=C(O)/C=N\Nc1nc2ccccc2[nH]1`, the TGI in assay [1], in [2], in assay [3], in assay [4], in assay [5] and in [6] was over 100 µM each time. The TGI in [7], in assay [9] and in [10] was over 100 µM each time.

Take `CCC(C)(C)/C(CC(O)(C(F)(F)F)C(F)(F)F)=N\O`: the TGI in assay [1], in assay [2], in assay [3], in assay [4], in assay [5] and in assay [6] was over 100 µM each time. Also, the TGI in [7], in assay [8], in [9] and in assay [10] was over 100 µM throughout.

For `COc1ccc(C2CC(c3cccc(Nc4ccncc4)c3)=NN2c2cc(Cl)cc(Cl)c2)cc1` (configuration not stated), the GI50 was 1.89 µM in assay [2]; 1.89 µM in assay [3]; 1.75 µM in assay [6]; 2.23 µM in assay [7]; 1.74 µM in assay [9]. Further, the TGI in assay [2] was determined as 3.58 µM; in [3], 4.68 µM; in [6], 3.32 µM; in assay [7], 5.19 µM; in assay [9] it was 3.36 µM.

Turning to `CC[N+](CC)(CCNCC(N)=O)CC(N)=O`, the TGI in assay [1], in assay [2], in [3], in assay [4], in assay [5] and in assay [6] was over 10 µM each time. The TGI in assay [7], in [8], in assay [9] and in assay [10] was over 10 µM throughout.

`c1ccc2sc(C3(N4CCCC4)CCCCCC3)cc2c1`: the TGI in assay [1] was 43 µM; in [2], over 100 µM; in assay [3], 33 µM; in assay [5], 31 µM; in assay [6], 31.7 µM; in assay [7], 25.2 µM. The TGI in assay [8] worked out at 25.7 µM; in assay [9], 37.9 µM; in assay [10] it was 30.9 µM.

As for `CC(=O)c1c2c(cc3c1CC1(Cc4ccccc4C1=O)C3)CCC2` (configuration not stated), the TGI in [1] was over 100 µM; in assay [2] it was over 100 µM; in assay [3] it was 63.9 µM; in assay [4], 51.5 µM; in [5], 93.4 µM; in [6] it was 64 µM. Further, the TGI is over 100 µM in assay [7], 59.1 µM in assay [8], 68.4 µM in assay [9] and over 100 µM in [10].

With `O=[N+]([O-])c1ccc(C=C2C(Cl)=C(Cl)C(Cl)=C2Cl)cc1`, the GI50 in assay [3] was 3.67 µM; in assay [4], 2.59 µM; in [5], 3.39 µM; in [7] it was 3.3 µM; in assay [8], 1.81 µM; in assay [9], 3.81 µM. In assay [10], the GI50 was 1.77 µM. Besides, the TGI in [3] is over 100 µM; in [4], 9.26 µM; in [5], over 100 µM; in assay [7], over 100 µM; in assay [8], 3.39 µM; in [9], 74.4 µM. The molecule further came in with a TGI in [10] of 3.46 µM.

Regarding `COc1cc(C[S+]2CCCC2)c(SC)cc1C[S+]1CCCC1`, the TGI in [1], in [3], in assay [4], in [7], in [8] and in [9] was over 100 µM throughout. This molecule also returned a TGI in [10] of over 100 µM.

On to `Clc1c(Cl)c(Cl)c2nn(C3CCCO3)nc2c1Cl` (configuration not stated), for which the TGI in assay [1], in [2], in [3], in assay [4], in [5] and in assay [6] was over 100 µM each time. The TGI in assay [7], in assay [8] and in assay [10] was over 100 µM in each case.

As to `CCOC(=O)C1(Cc2ccc3c(c2)CCC3)Cc2cc3c(cc2C1)CCC3`, the TGI in assay [1], in assay [2], in assay [3], in assay [4], in [5] and in assay [6] was over 100 µM in each case. Also, the TGI in [7], in assay [9] and in assay [10] was over 100 µM each time.

For `Cc1cccc(-c2nc3ccc([N+](=O)[O-])cc3c(=O)o2)c1`, the TGI in assay [1], in assay [2], in assay [4], in [5], in assay [6] and in assay [7] was over 100 µM each time. In addition, the TGI in assay [8], in assay [9] and in [10] was over 100 µM throughout.

On to `N#C/C(C(=O)Nc1ccccc1)=C(/N)N1CCOCC1`, for which the TGI in assay [1], in assay [2], in assay [3], in [6], in assay [7] and in [9] was over 100 µM in each case. The molecule also returned a TGI in assay [10] of over 100 µM.

As to `O=C1OC[C@@H]2Cc3cc4c(cc3[C@H](c3ccc5c(c3)OCO5)[C@@H]12)OCO4`, the TGI in assay [1], in assay [2], in assay [3], in assay [4], in assay [5] and in [6] was over 25 µM in each case. Besides, the TGI in assay [7], in [9] and in assay [10] was over 25 µM each time.

Source of the values: PubChem BioAssay (NCI).
